Experimental data reported in the Kinase Knowledgebase extract (Sharma et al. 2016).

Biological target: MAPK14 (human) (UniProt Q16539)
Assay: Inhibition of MAPK14 Kinase Activity

Sequence of MAPK14 (human) (Q16539 whole entry, looked up): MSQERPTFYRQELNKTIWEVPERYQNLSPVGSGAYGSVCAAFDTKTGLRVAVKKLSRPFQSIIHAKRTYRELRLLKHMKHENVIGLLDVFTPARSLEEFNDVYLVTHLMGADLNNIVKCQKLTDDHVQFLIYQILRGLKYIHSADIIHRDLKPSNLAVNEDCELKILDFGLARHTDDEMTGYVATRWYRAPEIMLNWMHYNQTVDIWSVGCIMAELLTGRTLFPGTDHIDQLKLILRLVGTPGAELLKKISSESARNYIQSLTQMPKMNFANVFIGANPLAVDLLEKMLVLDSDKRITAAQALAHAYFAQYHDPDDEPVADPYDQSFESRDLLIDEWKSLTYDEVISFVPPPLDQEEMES

| IC50 [nM] | Compound |
| --- | --- |
| ≤ 1000 | Cc1nc(-c2ccc(F)cc2)c(-c2nc(C(=O)NCC#N)cs2)s1 |
| ≤ 1000 | CC(C)NC(=O)c1csc(-c2oc(CNC(=O)c3c(F)c(F)c(F)c(F)c3F)nc2-c2ccc(F)cc2)n1 |
| ≤ 1000 | COC(=O)N1CCC(c2[nH]nc(-c3ccc(F)cc3)c2-c2nc(C(=O)NC(C)C)cs2)CC1 |
| ≤ 1000 | CCOC(=O)CC(=O)NCc1nc(-c2ccc(F)cc2)c(-c2nc(C(=O)NC(C)C)cs2)o1 |
| ≤ 1000 | COc1cc2c(cc1OC)CN(C(=O)c1csc(-c3sc(C)nc3-c3ccc(F)cc3)n1)CC2 |
| ≤ 1000 | CC(C)NC(=O)c1csc(-c2oc(CNC(=O)c3ccccc3Cl)nc2-c2ccc(F)cc2)n1 |
| ≤ 1000 | Cc1cccc(N2CCN(C(=O)c3csc(-c4sc(C)nc4-c4ccc(F)cc4)n3)CC2C)c1 (centres undefined) |
| ≤ 1000 | CC(C)NC(=O)c1csc(-c2c(-c3ccc(F)cc3)n[nH]c2C2CCN(C(=O)C3CC(O)CN3C(=O)OC(C)(C)C)CC2)n1 (centres undefined) |
| ≤ 1000 | CC(C)NC(=O)c1csc(-c2oc(CN3CCN(C(=O)c4ncc[nH]4)CC3)nc2-c2ccc(F)cc2)n1 |
| ≤ 1000 | CCOC(=O)CC(=O)N1CCN(Cc2nc(-c3ccc(F)cc3)c(-c3nc(C(=O)NC(C)C)cs3)o2)CC1 |
| ≤ 1000 | CCN(CC)c1ccc(C(=O)N2CCN(Cc3nc(-c4ccc(F)cc4)c(-c4nc(C(=O)NC(C)C)cs4)o3)CC2)cc1 |
| ≤ 1000 | CC(C)NC(=O)n1ccc(-c2c(-c3ccc(F)cc3)noc2CN(C)C)n1 |
| ≤ 1000 | CC(C)NC(=O)c1csc(-c2c(-c3ccccc3)n[nH]c2C2CCN(C(=O)c3ccc(Cl)c([N+](=O)[O-])c3)CC2)n1 |
| ≤ 1000 | COc1ccc(CNC(=O)c2csc(-c3sc(C)nc3-c3ccc(F)cc3)n2)cc1O |
| ≤ 1000 | Cc1nc(-c2ccc(F)cc2)c(-c2nc(C(=O)NCc3ccc(Cl)c(Cl)c3)cs2)s1 |
| ≤ 1000 | CC(C)NC(=O)c1csc(-c2c(-c3ccc(F)cc3)n[nH]c2C2CCN(C(=O)c3cccc4ccccc34)CC2)n1 |
| ≤ 1000 | CC(C)NC(=O)c1csc(-c2c(-c3ccc(F)cc3)n[nH]c2C2CCN(C(=O)C3CCCO3)CC2)n1 (centres undefined) |
| ≤ 1000 | CC(C)NC(=O)c1csc(-c2[nH]c(CN3CCOCC3)nc2-c2ccc(F)cc2)n1 |
| ≤ 1000 | CC(C)NC(=O)c1csc(-c2[nH][nH]c(=O)c2-c2ccc(F)cc2)n1 |
| ≤ 1000 | CCCCCCCC(=O)NCc1nc(-c2ccc(F)cc2)c(-c2nc(C(=O)NC(C)C)cs2)o1 |
| ≤ 1000 | CC(C)NC(=O)c1csc(-c2oc(CNC(=O)CC3=CC(Cl)=C(O)OC3)nc2-c2ccc(F)cc2)n1 |
| ≤ 1000 | CC(C)NC(=O)c1csc(-c2oc(CNC(=O)C(C)c3ccc(O)cc3)nc2-c2ccc(F)cc2)n1 (centres undefined) |

| IC50 [nM] | Compound |
| --- | --- |
| ≤ 1000 | Cc1onc(-c2ccc(F)cc2)c1-c1nc(C(=O)NC(C)C)cs1 |
| ≤ 1000 | Cc1nc(-c2ccc(F)cc2)c(-c2nc(C(=O)NC3CCC(C)CC3)cs2)s1 (centres undefined) |
| ≤ 1000 | C#CCNC(=O)c1csc(-c2c(-c3ccc(F)cc3)n[nH]c2C2CCN(C(=O)CO)CC2)n1 |
| ≤ 1000 | CC(C)NC(=O)c1csc(-c2c(-c3ccc(F)cc3)n[nH]c2C2CCN(C(=O)c3ccncc3)CC2)n1 |
| ≤ 1000 | CC(=O)NCC(=O)N1CCC(c2[nH]nc(-c3ccc(F)cc3)c2-c2nc(C(=O)NC(C)C)cs2)CC1 |
| ≤ 1000 | CC(C)NC(=O)c1csc(-c2oc(CN3CCN(C(=O)C4CCCN4C(=O)OC(C)(C)C)CC3)nc2-c2ccc(F)cc2)n1 (centres undefined) |
| ≤ 1000 | CCC(CO)NCc1nc(-c2ccc(F)cc2)c(-c2nc(C(=O)NC(C)C)cs2)o1 (centres undefined) |
| ≤ 1000 | CC(C)NC(=O)c1csc(-c2oc(CNC(=O)c3c(F)cccc3F)nc2-c2ccc(F)cc2)n1 |
| ≤ 1000 | CC(C)NC(=O)c1csc(-c2oc(CNC(=O)c3cnc(O)c(Cl)c3)nc2-c2ccc(F)cc2)n1 |
| ≤ 1000 | CC(C)NC(=O)c1csc(-c2oc(CNC(=O)CCc3cccc(C(F)(F)F)c3)nc2-c2ccc(F)cc2)n1 |
| ≤ 1000 | Cc1nc(-c2ccc(F)cc2)c(-c2nc(C(=O)NC(C)C)cs2)s1 |
| ≤ 1000 | CC(=O)N1CCC(n2cnc(-c3ccc(Cl)cc3)c2-c2nc(C(=O)NC(C)C)cs2)CC1 |
| ≤ 1000 | CC(C)NC(=O)c1csc(-c2oc(CNC(=O)Cc3ccc(O)c(F)c3)nc2-c2ccc(F)cc2)n1 |
| ≤ 1000 | CC(C)NC(=O)c1csc(-c2c(-c3ccc(F)cc3)n[nH]c2C2CCN(C(=O)c3ccc(C(C)(C)C)cc3)CC2)n1 |
| ≤ 1000 | O=C(NCCO)c1csc(-c2c(-c3ccc(F)cc3)n[nH]c2C2CCNCC2)n1 |
| ≤ 1000 | CC(C)C(CO)NC(=O)c1csc(-c2c(-c3ccc(F)cc3)n[nH]c2C2CCNCC2)n1 (centres undefined) |
| ≤ 1000 | CC(=O)c1cccc(NCc2onc(-c3ccc(F)cc3)c2-c2nc(C(=O)NC(C)C)cs2)c1 |
| ≤ 1000 | COc1ccc2cc(C(C)C(=O)NCc3nc(-c4ccc(F)cc4)c(-c4nc(C(=O)NC(C)C)cs4)o3)ccc2c1 (centres undefined) |
| ≤ 1000 | CC(C)NC(=O)c1csc(-c2c(-c3ccc(F)cc3)ncn2C2CCNCC2)n1 |
| ≤ 1000 | Cc1nc(-c2ccc(F)cc2)c(-c2nc(C(=O)NCc3ccncc3)cs2)s1 |
| ≤ 1000 | CC(C)NC(=O)c1csc(-c2oc(CNC(=O)c3cnc[nH]3)nc2-c2ccc(F)cc2)n1 |
| ≤ 1000 | COc1cccc(CNC(=O)c2csc(-c3sc(C)nc3-c3ccc(F)cc3)n2)c1 |

| IC50 [nM] | Compound |
| --- | --- |
| ≤ 1000 | Cc1nc(-c2ccc(F)cc2)c(-c2nc(C(=O)NCCCn3ccnc3)cs2)s1 |
| ≤ 1000 | Cc1onc(-c2ccc(Cl)cc2)c1-c1ccn(C(=O)NC(C)CO)n1 (centres undefined) |
| ≤ 1000 | CC(C)NC(=O)c1csc(-c2oc(CNC(=O)C=Cc3ccccc3F)nc2-c2ccc(F)cc2)n1 |
| ≤ 1000 | O=C(NCC1CC1)c1csc(-c2c(-c3ccc(F)cc3)n[nH]c2C2CCNCC2)n1 |
| ≤ 1000 | CC(C)NC(=O)c1csc(-c2oc(CNC(=O)Cc3ccccc3O)nc2-c2ccc(F)cc2)n1 |
| ≤ 1000 | Cc1ccc(S(=O)(=O)NCCNCc2nc(-c3ccc(F)cc3)c(-c3nc(C(=O)NC(C)C)cs3)o2)cc1 |
| ≤ 1000 | CC(C)NC(=O)c1csc(-c2c(-c3ccc(F)cc3)n[nH]c2C2CCN(C(=O)c3cc(O)ccc3[N+](=O)[O-])CC2)n1 |
| ≤ 1000 | CC(C)NC(=O)c1csc(-c2oc(CNC(=O)c3cccc(C#N)c3)nc2-c2ccc(F)cc2)n1 |
| ≤ 1000 | CCN(CC)CCNC(=O)c1csc(-c2sc(C)nc2-c2ccc(F)cc2)n1 |
| ≤ 1000 | Cc1nc(-c2ccc(F)cc2)c(-c2nc(C(=O)NCc3cccc(C(F)(F)F)c3)cs2)s1 |
| ≤ 1000 | C#CCNC(=O)c1csc(-c2c(-c3ccc(F)cc3)ncn2C)n1 |
| ≤ 1000 | Cc1nc(-c2ccc(F)cc2)c(-c2nc(C(=O)NCC3(O)CCCCC3)cs2)s1 |
| ≤ 1000 | COCCNC(=O)c1csc(-c2c(-c3ccc(F)cc3)n[nH]c2C2CCNCC2)n1 |
| ≤ 1000 | Cc1onc(-c2ccc(Cl)cc2)c1-c1ccn(C(=O)NCC(C)C)n1 |
| ≤ 1000 | Cc1nc(-c2ccc(F)cc2)c(-c2nc(C(=O)N3CCN(c4ccccc4C#N)CC3)cs2)s1 |
| ≤ 1000 | Cc1cc(C(=O)N2CCN(Cc3nc(-c4ccc(F)cc4)c(-c4nc(C(=O)NC(C)C)cs4)o3)CC2)n[nH]1 |
| ≤ 1000 | Cc1cccc([N+](=O)[O-])c1C(=O)NCc1nc(-c2ccc(F)cc2)c(-c2nc(C(=O)NC(C)C)cs2)o1 |
| ≤ 1000 | CC(C)NC(=O)c1csc(-c2oc(CN3CCN(C(=O)c4cnc(O)c(Cl)c4)CC3)nc2-c2ccc(F)cc2)n1 |
| ≤ 1000 | CC(=O)C(=O)N1CCC(c2[nH]nc(-c3ccc(F)cc3)c2-c2nc(C(=O)NC(C)C)cs2)CC1 |
| ≤ 1000 | Cc1nc(-c2ccc(F)cc2)c(-c2nc(C(=O)NCc3ccccc3OC(F)(F)F)cs2)s1 |
| ≤ 1000 | Cc1nc(-c2ccc(F)cc2)c(-c2nc(C(=O)NCc3cccs3)cs2)s1 |
| ≤ 1000 | Cc1nc(-c2ccc(F)cc2)c(-c2nc(C(=O)NC3CCC3)cs2)s1 |

| IC50 [nM] | Compound |
| --- | --- |
| ≤ 1000 | CC(C)NC(=O)c1csc(-c2oc(CN3CCN(C(=O)Cc4ccc(C(F)(F)F)cc4)CC3)nc2-c2ccc(F)cc2)n1 |
| ≤ 1000 | CC(C)NC(=O)c1csc(-c2c(-c3ccc(F)cc3)ncn2C2CCN(C(=O)CO)CC2)n1 |
| ≤ 1000 | CC(C)NC(=O)c1csc(-c2c(-c3ccc(F)cc3)n[nH]c2C2CCN(C(=O)C(C)(C)C)CC2)n1 |
| ≤ 1000 | CC(C)NC(=O)c1csc(-c2oc(CNC(=O)Cc3cccc4ccccc34)nc2-c2ccc(F)cc2)n1 |
| ≤ 1000 | CC(C)NC(=O)c1csc(-c2oc(CNC(=O)c3cccc(F)c3F)nc2-c2ccc(F)cc2)n1 |
| ≤ 1000 | CC(C)NC(=O)c1csc(-c2oc(CNC(=O)C(Cc3ccccc3)NC(=O)OC(C)(C)C)nc2-c2ccc(F)cc2)n1 (centres undefined) |
| ≤ 1000 | Cc1cc(C(=O)NCc2nc(-c3ccc(F)cc3)c(-c3nc(C(=O)NC(C)C)cs3)o2)n[nH]1 |
| ≤ 1000 | CC(C)NC(=O)n1ccc(-c2c(-c3ccc(F)cc3)noc2CN2CCOCC2)n1 |
| ≤ 1000 | CC(C)NC(=O)c1csc(-c2oc(CN3CCN(C(=O)C(C)(C)C)CC3)nc2-c2ccc(F)cc2)n1 |
| ≤ 1000 | Cc1onc(-c2ccc(Cl)cc2)c1-c1ccn(C(=O)NCCO)n1 |
| ≤ 1000 | CC(C)NC(=O)c1csc(-c2c(-c3ccc(F)cc3)noc2CNC(=O)c2ccc([N+](=O)[O-])cc2Cl)n1 |
| ≤ 1000 | CC(C)NC(=O)c1csc(-c2oc(CNC(=O)C=Cc3ccccc3)nc2-c2ccc(F)cc2)n1 |
| ≤ 1000 | CC(C)NC(=O)c1csc(-c2oc(CN3CCN(C(=O)c4cccc5ccccc45)CC3)nc2-c2ccc(F)cc2)n1 |
| ≤ 1000 | Cc1[nH]nc(-c2ccc(F)cc2)c1-c1nc(C(=O)NCc2ccccn2)cs1 |
| ≤ 1000 | Cc1nc(-c2ccc(F)cc2)c(-c2nc(C(=O)NCCOc3ccccc3)cs2)s1 |
| ≤ 1000 | CC(C)NC(=O)c1csc(-c2oc(CNC(=O)C(O)CCl)nc2-c2ccc(F)cc2)n1 (centres undefined) |
| ≤ 1000 | Cc1nc(-c2ccc(F)cc2)c(-c2nc(C(=O)NCCc3ccccc3)cs2)s1 |
| ≤ 1000 | Cc1onc(-c2ccc(F)cc2F)c1-c1ccn(C(=O)NC(C)C)n1 |
| ≤ 1000 | CC(C)NC(=O)c1csc(-c2c(-c3ccc(F)cc3)noc2CN(C)CCO)n1 |
| ≤ 1000 | CC(C)NC(=O)c1csc(-c2oc(CNC(=O)c3cc([N+](=O)[O-])ccc3Cl)nc2-c2ccc(F)cc2)n1 |
| ≤ 1000 | CC(C)NC(=O)c1csc(-c2oc(CNC(=O)c3cc(Cl)c(O)c(Cl)c3)nc2-c2ccc(F)cc2)n1 |
| ≤ 1000 | CCC(=O)C(=O)NCc1nc(-c2ccc(F)cc2)c(-c2nc(C(=O)NC(C)C)cs2)o1 |

| Compound | IC50 [nM] |
| --- | --- |
| CC(C)NC(=O)c1csc(-c2oc(CN3CCN(C(=O)Cc4cccc(O)c4)CC3)nc2-c2ccc(F)cc2)n1 | ≤ 1000 |
